Test results as given in publication PMC8855934 (Journal of medicinal chemistry, 2021).
Numbering of substitutions follows the chain as printed.

Assays:
VCaP cell line = experiment: Cell growth inhibition in the VCaP cell line; format: cell-based, human
[1] = biological target: T1, AR double mutations (L702H and T878A) (Homo sapiens, UniProt P10275, L702H/T878A); settings: MDA-PCa-2b, 24 h, Figure 7
T1 sequence (P10275 1-920 L702H/T878A): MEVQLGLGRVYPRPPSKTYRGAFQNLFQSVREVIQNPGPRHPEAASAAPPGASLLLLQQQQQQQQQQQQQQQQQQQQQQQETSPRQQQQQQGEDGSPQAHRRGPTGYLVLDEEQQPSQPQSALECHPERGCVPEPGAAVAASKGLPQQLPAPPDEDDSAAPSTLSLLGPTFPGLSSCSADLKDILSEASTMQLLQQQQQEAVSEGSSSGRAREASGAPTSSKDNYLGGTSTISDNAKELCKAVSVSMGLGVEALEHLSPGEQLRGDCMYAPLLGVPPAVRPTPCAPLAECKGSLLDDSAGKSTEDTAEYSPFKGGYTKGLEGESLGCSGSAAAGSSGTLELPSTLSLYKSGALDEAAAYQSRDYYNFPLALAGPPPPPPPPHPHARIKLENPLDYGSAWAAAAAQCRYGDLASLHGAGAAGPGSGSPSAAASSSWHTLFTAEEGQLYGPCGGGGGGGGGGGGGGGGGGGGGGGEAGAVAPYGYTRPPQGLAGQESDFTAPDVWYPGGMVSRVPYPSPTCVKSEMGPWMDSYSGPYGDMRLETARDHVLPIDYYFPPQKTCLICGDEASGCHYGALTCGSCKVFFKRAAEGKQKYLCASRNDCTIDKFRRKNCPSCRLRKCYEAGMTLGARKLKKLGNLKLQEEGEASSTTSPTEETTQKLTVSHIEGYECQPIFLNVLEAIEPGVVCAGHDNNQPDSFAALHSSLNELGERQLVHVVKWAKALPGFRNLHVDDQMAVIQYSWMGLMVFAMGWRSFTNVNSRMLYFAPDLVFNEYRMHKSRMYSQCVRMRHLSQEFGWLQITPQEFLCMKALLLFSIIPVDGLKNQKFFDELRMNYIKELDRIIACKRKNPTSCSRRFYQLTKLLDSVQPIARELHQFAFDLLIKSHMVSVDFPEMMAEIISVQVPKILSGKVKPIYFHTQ

[2] = Tissue distribution studies of ARD-2585 in mice bearing VCaP tumors; format: in vivo; settings: male, SCID, mouse, po, 20 mg/kg
[3] = tested on: AR protein (22Rvl cell line with F876L mutation); experiment: AR degradation in 22Rv1 cell line; format: cell-based, human; settings: 22Rv1, 24 h
AR T878A mutant protein = biological target: T2, AR T878A mutant protein (Homo sapiens, UniProt P10275, T878A)
T2 sequence (P10275 1-920 T878A): T1 sequence (P10275 1-920 L702H/T878A) with H702L

Pharmacokinetics in mice = format: in vivo; settings: male, mouse, in vivo
AR protein [4] = biological target: T3, AR protein (Homo sapiens, UniProt P10275); experiment: AR degradation in VCaP cell line; format: cell-based
T3 sequence (P10275 1-920): T1 sequence (P10275 1-920 L702H/T878A) with H702L, A878T

AR protein [5] = biological target: T3, AR protein; settings: single oral administration 20 mg/kg, 6 and 24 h time-points, Western blotting

Compound	times less potent than compounds 35 and 36 (cell growth inhibition) (VCaP cell line)	concentration as low as which AR protein level is reduced by >80% [1] [nM]	concentration at 6 h ([2]; plasma) [ng/mL]	concentration at 24 h ([2]; plasma) [ng/mL]	concentration at 24 h ([2]; prostate) [ng/g]	Dmax, AR degradation in 22Rv1 cell line [3] [%]	Dmax, AR degradation in LNCaP cell line (AR T878A mutant protein; LNCaP cell line (AR T878A), Western blotting, listed as ARD-2585) [%]	reduction of AR protein (mechanism study) (AR T878A mutant protein; LNCaP cells, 100 nM, 3 h treatment)	reduction of AR protein level (degradation kinetics) (AR T878A mutant protein; LNCaP, 1 h)	Vd (Pharmacokinetics in mice; iv, 2 mg/kg) [L/kg]	clearance (Pharmacokinetics in mice; iv, 2 mg/kg) [mL/min/kg]	half-life (Pharmacokinetics in mice; iv, 2 mg/kg) [h]	AUC(0-t) (Pharmacokinetics in mice; po, 3 mg/kg) [ng·h/mL]	Dmax, AR degradation in VCaP cell line (AR protein [4]; VCaP cell line, 24 h treatment, Western blotting, listed as ARD-2585) [%]	reduction of AR protein (mechanism study) (AR protein [4]; VCaP cells, 100 nM, 3 h treatment)	reduction of AR protein level (degradation kinetics) (AR protein [4]; VCaP, 1 h)	reduction of AR protein level in VCaP tumor tissue (AR protein [5])
N#Cc1ccc(N[C@H]2CC[C@H](NC(=O)c3ccc(N4CCC(N5CCN(c6ccc7c(c6)C(=O)N(C6CCC(=O)NC6=O)C7=O)CC5)CC4)cc3)CC2)cc1Cl (stereo partly drawn) [Compound 34, N-(1R,4R)-4-(((3-Chloro-4-cyanophenyl)amino)cyclohexyl)-4-(4-(4-(2-(2,6-dioxopiperidin-3-yl)-1,3-dioxoisoindolin-5-yl)piperazin-1-yl)piperidin-1-yl)benzamide]	~10	–	–	–	–	–	–	–	–	–	–	–	–	–	–	–	–
CN(c1ccc(C#N)c(Cl)c1)[C@H]1CC[C@H](NC(=O)c2ccc(N3CCN(C4CN(c5ccc6c(c5)C(=O)N(C5CCC(=O)NC5=O)C6=O)C4)CC3)cc2)CC1 (stereo partly drawn) [Compound 43, N-(1R,4R)-4-(((3-Chloro-4-cyanophenyl)(methyl)amino)-cyclohexyl)-4-(4-(1-(2-(2,6-dioxopiperidin-3-yl)-1,3-dioxoisoindolin-5-yl)azetidin-3-yl)piperazin-1-yl)benzamide]	–	1	134 ± 98	214 ± 78	109 ± 23	> 95	> 98	effectively reduces	effectively reduce	1.8 to 2.1	3.33 to 5	5.5 to 7.5	8640	> 98	effectively reduces	effectively reduce	effective
CCCN(c1ccc(C#N)c(Cl)c1)[C@H]1CC[C@H](NC(=O)c2ccc(N3CCC(N4CCN(c5ccc6c(c5)C(=O)N(C5CCC(=O)NC5=O)C6=O)CC4)CC3)cc2)CC1 (stereo partly drawn) [Compound 37, N-(1R,4R)-4-(((3-Chloro-4-cyanophenyl)(propyl)amino)-cyclohexyl)-4-(4-(4-(2-(2,6-dioxopiperidin-3-yl)-1,3-dioxoisoindolin-5-yl)piperazin-1-yl)piperidin-1-yl)benzamide]	> 40	–	–	–	–	–	–	–	–	–	–	–	–	–	–	–	–
